# Measurements reported in patent US20260297085A1, “1 H-PYRROLO[2,3-B]PYRIDIN-4-YL]-2-OXOPYRROLIDINE-3-CARBONITRILE DERIVATIVES AS TYROSINE KINASE 2 (TYK2) INHIBITORS FOR THE TREATMENT OF INFLAMMATORY DISEASES” (BIOGEN MA INC., priority 2023, published 2026).
# Where a name gives a salt, the structure may show the parent alone.
# What was measured:
# [1] = biological target: T1, human JAK1 kinase domain (JH1) (Homo sapiens, UniProt P23458); assay: JH1 biochemical assay for JAK1 (ADP-Glo kinase assay, recombinant JH1 catalytic domain, JAK3-342 peptide, 35 μM ATP)
# T1 construct: recombinantly generated catalytic kinase (also known as JH1) domain of human JAK1, JAK2, JAK3 and TYK2
# In short: (§1)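 Enzyme levels: JAK1 4 nM, JAK2 0.2 nM, JAK3 0.3 nM, TYK2 2 nM. Peptide substrate at 50 μM. Reactions ran 100 minutes; ADP formed was converted to luciferase luminescence after ATP depletion. Compounds tested from 10 μM or 1 μM top, 11-point 3-fold dilutions; IC50 from 4-parameter logistic fit of normalized percent activity.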
# [2] = biological target: Tyk2 kinase activity on STAT4 in NK92 cells (Homo sapiens, UniProt P29597); assay: pSTAT4 cell assay (MSD; NK92 cells, 30 ng/mL IL2 stimulation); type: cell-based; settings: 30 ng/mL IL2, 15 minutes
# In short: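 IC50 values come from 4-parameter logistic fits of normalized percent activity. Phospho-STAT was read by MSD (anti-STAT4 antibodies) in NK92 lysates after a 15 min stimulation with 30 ng/mL IL2. The serum-starved cells had been given compound for 1 h (10 points, four-fold, top 10 μM).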
# [3] = biological target: JAK1 kinase activity on STAT3 in TF1 cells (Homo sapiens, UniProt P23458); assay: pSTAT3 cell assay (MSD; TF1 cells, 30 ng/mL IL-6 stimulation); type: cell-based; settings: 30 ng/mL IL-6, 15 minutes
# In short: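 IC50 values derive from 4-parameter logistic fits of normalized pSTAT3 signal, measured by MSD with anti-STAT3 antibodies. TF1 cells, serum-starved beforehand, received compound for 1 hour (top concentration 10 μM, four-fold steps, 10 points) before a 15-minute IL-6 (30 ng/mL) stimulus.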
# [4] = biological target: JAK2 kinase activity on STAT5 in TF1 cells (Homo sapiens, UniProt O60674); assay: pSTAT5 cell assay (MSD; TF1 cells, 30 ng/mL IL-3 stimulation); type: cell-based; settings: 30 ng/mL IL-3, 15 minutes
# In short: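 IC50 from a 4-parameter logistic fit of normalized pSTAT5 signal, measured by MSD in lysates of TF1 cells. Cells were serum-starved, exposed to compound for 1 h (top concentration 10 μM, four-fold, 10 points), then given IL-3 at 30 ng/mL for 15 min.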
# [5] = biological target: T2, human JAK2 kinase domain (JH1) (Homo sapiens, UniProt O60674); assay: JH1 biochemical assay for JAK2 (ADP-Glo kinase assay, recombinant JH1 catalytic domain, JAK3-974 peptide, 15 μM ATP)
# T2 construct: recombinantly generated catalytic kinase (also known as JH1) domain of human JAK1, JAK2, JAK3 and TYK2
# In short: as §1
# [6] = biological target: T3, human TYK2 kinase domain (JH1) (Homo sapiens, UniProt P29597); assay: JH1 biochemical assay for TYK2 (ADP-Glo kinase assay, recombinant JH1 catalytic domain, JAK3-974 peptide, 10 μM ATP)
# T3 construct: recombinantly generated catalytic kinase (also known as JH1) domain of human JAK1, JAK2, JAK3 and TYK2
# T3 sequence (P29597 897-1176 limits assumed): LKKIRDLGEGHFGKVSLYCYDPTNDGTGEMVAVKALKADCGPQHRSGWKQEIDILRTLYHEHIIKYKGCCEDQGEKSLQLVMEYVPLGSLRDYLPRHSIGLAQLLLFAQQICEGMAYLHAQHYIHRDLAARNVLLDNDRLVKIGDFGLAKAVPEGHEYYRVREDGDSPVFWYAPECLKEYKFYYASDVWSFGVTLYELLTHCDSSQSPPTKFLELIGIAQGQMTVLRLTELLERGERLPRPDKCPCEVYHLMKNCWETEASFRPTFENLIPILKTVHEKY
# In short: as §1
# [7] = biological target: T4, human JAK3 kinase domain (JH1) (Homo sapiens, UniProt P52333); assay: JH1 biochemical assay for JAK3 (ADP-Glo kinase assay, recombinant JH1 catalytic domain, JAK3-974 peptide, 4 μM ATP)
# T4 construct: recombinantly generated catalytic kinase (also known as JH1) domain of human JAK1, JAK2, JAK3 and TYK2
# In short: as §1
# Sequence of JAK1 kinase activity on STAT3 in TF1 cells (P23458 whole entry): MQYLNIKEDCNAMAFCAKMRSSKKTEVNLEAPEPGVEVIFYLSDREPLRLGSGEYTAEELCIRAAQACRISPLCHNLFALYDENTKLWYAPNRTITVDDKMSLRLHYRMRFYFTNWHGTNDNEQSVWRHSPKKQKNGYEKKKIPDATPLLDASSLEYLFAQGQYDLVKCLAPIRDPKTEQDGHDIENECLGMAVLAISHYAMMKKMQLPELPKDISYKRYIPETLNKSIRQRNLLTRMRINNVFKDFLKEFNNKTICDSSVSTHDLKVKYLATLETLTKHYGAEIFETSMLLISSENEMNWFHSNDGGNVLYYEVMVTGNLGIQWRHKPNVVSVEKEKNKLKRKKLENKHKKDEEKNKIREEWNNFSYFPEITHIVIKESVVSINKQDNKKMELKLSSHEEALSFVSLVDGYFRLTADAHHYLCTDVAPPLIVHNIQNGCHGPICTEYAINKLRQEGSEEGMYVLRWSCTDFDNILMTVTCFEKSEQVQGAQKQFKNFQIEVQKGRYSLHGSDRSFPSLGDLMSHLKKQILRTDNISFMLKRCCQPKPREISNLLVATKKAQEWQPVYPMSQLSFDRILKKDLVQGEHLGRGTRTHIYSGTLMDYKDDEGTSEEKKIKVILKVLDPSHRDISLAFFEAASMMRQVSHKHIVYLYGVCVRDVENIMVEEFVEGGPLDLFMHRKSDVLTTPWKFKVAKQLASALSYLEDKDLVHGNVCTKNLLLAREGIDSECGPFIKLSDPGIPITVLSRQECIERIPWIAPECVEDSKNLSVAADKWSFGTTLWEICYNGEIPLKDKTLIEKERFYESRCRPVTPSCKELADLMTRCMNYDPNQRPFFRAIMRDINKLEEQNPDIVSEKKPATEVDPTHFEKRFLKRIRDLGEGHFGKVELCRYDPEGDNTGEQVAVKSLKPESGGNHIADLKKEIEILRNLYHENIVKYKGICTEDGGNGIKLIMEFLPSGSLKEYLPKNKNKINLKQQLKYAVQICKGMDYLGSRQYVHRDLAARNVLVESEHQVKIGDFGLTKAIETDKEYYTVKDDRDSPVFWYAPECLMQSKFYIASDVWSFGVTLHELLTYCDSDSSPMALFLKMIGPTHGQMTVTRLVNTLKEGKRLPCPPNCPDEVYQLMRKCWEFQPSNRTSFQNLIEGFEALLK
# T1 sequence (P23458 875-1153 limits assumed): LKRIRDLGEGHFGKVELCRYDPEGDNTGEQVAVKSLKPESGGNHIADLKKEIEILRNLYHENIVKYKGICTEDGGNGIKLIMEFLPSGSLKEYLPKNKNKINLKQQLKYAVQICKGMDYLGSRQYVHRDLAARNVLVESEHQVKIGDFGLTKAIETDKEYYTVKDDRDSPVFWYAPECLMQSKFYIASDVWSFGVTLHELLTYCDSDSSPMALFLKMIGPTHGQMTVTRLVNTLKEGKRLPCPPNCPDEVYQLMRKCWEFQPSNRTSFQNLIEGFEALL
# T2 sequence (O60674 849-1124 limits assumed): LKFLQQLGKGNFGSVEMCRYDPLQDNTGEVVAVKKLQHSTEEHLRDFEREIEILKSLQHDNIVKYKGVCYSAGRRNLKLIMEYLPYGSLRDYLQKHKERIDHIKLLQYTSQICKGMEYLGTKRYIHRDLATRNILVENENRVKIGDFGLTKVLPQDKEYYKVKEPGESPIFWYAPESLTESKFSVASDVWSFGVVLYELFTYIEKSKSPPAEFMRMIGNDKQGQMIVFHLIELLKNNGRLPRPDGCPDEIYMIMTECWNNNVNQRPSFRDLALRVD
# T4 sequence (P52333 822-1111 limits assumed): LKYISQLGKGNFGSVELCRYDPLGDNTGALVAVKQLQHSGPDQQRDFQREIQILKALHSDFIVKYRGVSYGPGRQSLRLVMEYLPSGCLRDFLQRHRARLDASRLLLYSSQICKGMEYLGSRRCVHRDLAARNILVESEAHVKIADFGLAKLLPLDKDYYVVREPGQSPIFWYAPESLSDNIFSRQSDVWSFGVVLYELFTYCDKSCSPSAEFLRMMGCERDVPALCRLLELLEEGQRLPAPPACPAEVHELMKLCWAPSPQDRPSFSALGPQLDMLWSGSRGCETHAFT
# Sequence of JAK2 kinase activity on STAT5 in TF1 cells (O60674 whole entry): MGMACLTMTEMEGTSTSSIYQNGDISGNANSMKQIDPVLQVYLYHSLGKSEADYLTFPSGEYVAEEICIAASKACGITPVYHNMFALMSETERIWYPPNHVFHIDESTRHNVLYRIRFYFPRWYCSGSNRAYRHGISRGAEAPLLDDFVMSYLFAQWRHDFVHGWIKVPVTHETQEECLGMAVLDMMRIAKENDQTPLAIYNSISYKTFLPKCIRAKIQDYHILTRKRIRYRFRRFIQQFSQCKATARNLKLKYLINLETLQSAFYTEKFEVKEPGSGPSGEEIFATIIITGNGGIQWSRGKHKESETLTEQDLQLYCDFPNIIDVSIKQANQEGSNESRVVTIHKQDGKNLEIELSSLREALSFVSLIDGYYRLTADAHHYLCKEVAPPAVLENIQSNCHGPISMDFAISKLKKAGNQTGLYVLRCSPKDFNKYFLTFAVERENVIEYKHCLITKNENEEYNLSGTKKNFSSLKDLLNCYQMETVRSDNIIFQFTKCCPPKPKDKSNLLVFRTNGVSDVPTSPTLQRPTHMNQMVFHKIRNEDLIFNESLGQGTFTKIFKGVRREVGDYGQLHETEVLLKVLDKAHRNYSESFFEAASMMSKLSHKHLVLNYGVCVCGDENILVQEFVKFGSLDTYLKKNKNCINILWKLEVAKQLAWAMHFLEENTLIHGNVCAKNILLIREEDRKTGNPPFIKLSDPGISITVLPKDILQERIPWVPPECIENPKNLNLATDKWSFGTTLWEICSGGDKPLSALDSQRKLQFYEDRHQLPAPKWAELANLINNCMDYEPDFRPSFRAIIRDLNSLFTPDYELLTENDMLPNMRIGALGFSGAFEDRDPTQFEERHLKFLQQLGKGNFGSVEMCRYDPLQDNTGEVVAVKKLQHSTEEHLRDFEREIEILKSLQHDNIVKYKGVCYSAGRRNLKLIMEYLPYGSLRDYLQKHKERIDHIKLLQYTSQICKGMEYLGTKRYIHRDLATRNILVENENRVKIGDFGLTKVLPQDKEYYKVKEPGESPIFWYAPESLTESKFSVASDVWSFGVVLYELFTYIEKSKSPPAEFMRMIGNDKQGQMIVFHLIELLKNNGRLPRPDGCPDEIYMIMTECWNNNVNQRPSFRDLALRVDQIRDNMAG
# Sequence of Tyk2 kinase activity on STAT4 in NK92 cells (P29597 whole entry): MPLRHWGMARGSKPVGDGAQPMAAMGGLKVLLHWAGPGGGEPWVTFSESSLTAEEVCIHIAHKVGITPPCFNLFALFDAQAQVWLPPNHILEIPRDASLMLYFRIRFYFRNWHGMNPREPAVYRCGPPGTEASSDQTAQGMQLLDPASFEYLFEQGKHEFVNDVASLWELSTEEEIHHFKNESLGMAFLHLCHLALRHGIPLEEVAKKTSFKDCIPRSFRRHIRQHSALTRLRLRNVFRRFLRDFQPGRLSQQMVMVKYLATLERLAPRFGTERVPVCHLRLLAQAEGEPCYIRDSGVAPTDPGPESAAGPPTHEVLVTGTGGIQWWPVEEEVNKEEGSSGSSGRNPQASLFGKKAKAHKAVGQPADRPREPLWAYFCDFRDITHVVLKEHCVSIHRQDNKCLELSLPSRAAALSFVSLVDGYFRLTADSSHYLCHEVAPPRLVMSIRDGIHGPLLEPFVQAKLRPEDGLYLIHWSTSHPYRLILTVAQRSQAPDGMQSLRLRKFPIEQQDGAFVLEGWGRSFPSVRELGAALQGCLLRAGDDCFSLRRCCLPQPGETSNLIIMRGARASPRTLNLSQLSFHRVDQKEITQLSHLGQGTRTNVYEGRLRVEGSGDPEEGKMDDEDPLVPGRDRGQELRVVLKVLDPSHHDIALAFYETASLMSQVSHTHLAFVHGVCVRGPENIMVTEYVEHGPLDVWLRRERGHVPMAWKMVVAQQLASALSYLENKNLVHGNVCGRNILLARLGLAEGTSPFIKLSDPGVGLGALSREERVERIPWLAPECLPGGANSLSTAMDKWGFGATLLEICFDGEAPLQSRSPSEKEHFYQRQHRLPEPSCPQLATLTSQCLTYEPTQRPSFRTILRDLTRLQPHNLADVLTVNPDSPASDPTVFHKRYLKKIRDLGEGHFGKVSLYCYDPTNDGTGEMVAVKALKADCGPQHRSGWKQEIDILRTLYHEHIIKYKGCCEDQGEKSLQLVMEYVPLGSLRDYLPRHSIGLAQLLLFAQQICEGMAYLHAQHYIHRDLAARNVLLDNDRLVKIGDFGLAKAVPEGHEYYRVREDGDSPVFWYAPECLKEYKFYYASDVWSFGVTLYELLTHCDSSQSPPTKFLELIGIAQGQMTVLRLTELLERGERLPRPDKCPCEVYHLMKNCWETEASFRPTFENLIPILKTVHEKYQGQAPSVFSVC
SMILES,"IC50 ([1]; JH1 kinase domain, ADP-Glo) [nM]",IC50 [2] [nM],IC50 [3] [nM],IC50 [4] [nM],"IC50 ([5]; JH1 kinase domain, ADP-Glo) [nM]","IC50 ([6]; JH1 kinase domain, ADP-Glo) [nM]","IC50 ([7]; JH1 kinase domain, ADP-Glo) [nM]","IC50 ([1]; JAK1 JH1, ADP-Glo) [nM]","IC50 ([5]; JAK2 JH1, ADP-Glo) [nM]","IC50 ([6]; TYK2 JH1, ADP-Glo) [nM]","IC50 ([7]; JAK3 JH1, ADP-Glo) [nM]"
"Cn1cc(-c2cc3c(N4C[C@@H](C(F)F)[C@@](C#N)(C5CC5)C4=O)ccnn3c2)cn1 (racemic) [Example 153, rac-(3R,4S)-3-cyclopropyl-4-(difluoromethyl)-1-(6-(1-methyl-1H-pyrazol-4-yl)pyrrolo[1,2-b]pyridazin-4-yl)-2-oxopyrrolidine-3-carbonitrile]",100 to 1000,> 100,> 10000,> 10000,1000 to 5000,20 to 50,1000 to 5000,,,,
"COc1cc(-c2cc3c(N4C[C@@H](C)[C@@](C#N)(C5CC5)C4=O)ccnn3c2)ccn1 [Example 65, (3R,4S)-3-cyclopropyl-1-(6-(2-methoxypyridin-4-yl)pyrrolo[1,2-b]pyridazin-4-yl)-4-methyl-2-oxopyrrolidine-3-carbonitrile]",100 to 1000,50 to 100,1000 to 5000,> 10000,100 to 1000,5 to 20,100 to 1000,,,,
"CC(C)n1cc(-n2nc(N3C[C@@H](C)[C@@](C#N)(C4CC4)C3=O)c3ccncc32)cn1 [Example 280, (3R,4S)-3-cyclopropyl-1-(1-(1-isopropyl-1H-pyrazol-4-yl)-1H-pyrazolo[3,4-c]pyridin-3-yl)-4-methyl-2-oxopyrrolidine-3-carbonitrile]",,> 100,1000 to 5000,> 10000,,,,100 to 1000,100 to 1000,< 5,100 to 1000
"C[C@@H]1CN(c2nc(-c3ccc(S(C)(=O)=O)nc3)cn3nccc23)C(=O)[C@]1(C#N)C1CC1 [Example 257, (3R,4S)-3-cyclopropyl-4-methyl-1-(6-(6-(methylsulfonyl)pyridin-3-yl)pyrazolo[1,5-a]pyrazin-4-yl)-2-oxopyrrolidine-3-carbonitrile trifluoroacetate]",,> 100,1000 to 5000,5000 to 10000,,,,< 100,100 to 1000,5 to 20,100 to 1000
"Cc1nc(-c2cn3nccc3c(N3C[C@@H](C)[C@@](C#N)(C4CC4)C3=O)n2)cs1 [Example 214, (3R,4S)-3-cyclopropyl-4-methyl-1-(6-(2-methylthiazol-4-yl)pyrazolo[1,5-a]pyrazin-4-yl)-2-oxopyrrolidine-3-carbonitrile]",100 to 1000,> 100,1000 to 5000,5000 to 10000,100 to 1000,5 to 20,100 to 1000,,,,
"Cn1cc(-c2cc3c(N4CC[C@@](C#N)(C5CC5)C4=O)ccnn3c2)cn1 [Example 9, (S)-3-cyclopropyl-1-(6-(1-methyl-1H-pyrazol-4-yl)pyrrolo[1,2-b]pyridazin-4-yl)-2-oxopyrrolidine-3-carbonitrile]",100 to 1000,> 100,1000 to 5000,5000 to 10000,100 to 1000,5 to 20,100 to 1000,,,,
"C[C@@H]1CN(c2ccnn3cc(-c4cc5n(n4)CCO5)cc23)C(=O)[C@]1(C#N)C1CC1 [Example 110, (3R,4S)-3-cyclopropyl-1-(6-(2,3-dihydropyrazolo[5,1-b]oxazol-6-yl)pyrrolo[1,2-b]pyridazin-4-yl)-4-methyl-2-oxopyrrolidine-3-carbonitrile trifluoroacetate]",100 to 1000,> 100,> 10000,> 10000,100 to 1000,5 to 20,100 to 1000,,,,
"Cc1cn(-c2cc3c(N4C[C@@H](C)[C@@](C#N)(C5CC5)C4=O)ccnn3c2)cn1 [Example 341, (3R,4S)-3-cyclopropyl-4-methyl-1-(6-(4-methyl-1H-imidazol-1-yl)pyrrolo[1,2-b]pyridazin-4-yl)-2-oxopyrrolidine-3-carbonitrile]",,> 100,1000 to 5000,5000 to 10000,,,,100 to 1000,100 to 1000,5 to 20,100 to 1000
"C[C@@H]1CN(c2ccnn3cc(-c4cccc(C(F)F)n4)cc23)C(=O)[C@]1(C#N)C1CC1 [Example 135, (3R,4S)-3-cyclopropyl-1-(6-(6-(difluoromethyl)pyridin-2-yl)pyrrolo[1,2-b]pyridazin-4-yl)-4-methyl-2-oxopyrrolidine-3-carbonitrile trifluoroacetate]",100 to 1000,> 100,1000 to 5000,> 10000,100 to 1000,5 to 20,100 to 1000,,,,
"CC(=O)Nc1cc(-c2cc3c(N4C[C@@H](C)[C@@](C#N)(C5CC5)C4=O)ccnn3c2)ccn1 [Example 61, N-(4-(4-((3R,4S)-3-cyano-3-cyclopropyl-4-methyl-2-oxopyrrolidin-1-yl)pyrrolo[1,2-b]pyridazin-6-yl)pyridin-2-yl)acetamide]",< 100,20 to 50,100 to 1000,5000 to 10000,100 to 1000,< 5,100 to 1000,,,,
"C[C@@H]1CN(c2ccnn3cc(-c4cnn(C)c4)cc23)C(=O)[C@]1(C#N)C1CC1 [Example 34, (3R,4S)-3-cyclopropyl-4-methyl-1-(6-(1-methyl-1H-pyrazol-4-yl)pyrrolo[1,2-b]pyridazin-4-yl)-2-oxopyrrolidine-3-carbonitrile]",100 to 1000,20 to 50,1000 to 5000,5000 to 10000,100 to 1000,< 5,100 to 1000,,,,
"C[C@@H]1CN(c2ccnn3cc(-c4cnn([C@@H]5CC5(F)F)c4)cc23)C(=O)[C@]1(C#N)C1CC1 (single isomer, unassigned) [Example 155]",< 100,50 to 100,1000 to 5000,1000 to 5000,100 to 1000,< 5,100 to 1000,,,,
"C[C@@H]1CN(c2nc(-c3cnc4c(c3)OCC(=O)N4C)cn3nccc23)C(=O)[C@]1(C#N)C1CC1 [Example 235, (3R,4S)-3-cyclopropyl-4-methyl-1-(6-(4-methyl-3-oxo-3,4-dihydro-2H-pyrido[3,2-b][1,4]oxazin-7-yl)pyrazolo[1,5-a]pyrazin-4-yl)-2-oxopyrrolidine-3-carbonitrile trifluoroacetate]",,> 100,> 10000,> 10000,,,,< 100,100 to 1000,< 5,100 to 1000
